Active and inactive are the calls of the source. The calls are words filed in the database; no cut-off is given here.
System: Mus musculus
Test: Analgesic activity in Kunming mouse model of acetic-acid-induced writhing assessed as inhibition of writhing numbers at 5 mg/kg measured for 30 mins relative to control
Type: functional
Parameters: scale not given: the % may be the effect or the level left

Row | Compound | Activity
1 | C=C1[C@H]2C[C@@H](O)C(C)(C)[C@]2(O)CC[C@@]23C[C@@H](CC[C@@H]12)[C@](C)(O)C3 | 64.1%
2 | CC1=C2C[C@H](O)C(C)(C)[C@@H]2C(=O)C[C@@]23C[C@@H](CC=C12)[C@](C)(O)C3 | Active
3 | C=C1[C@@H]2[C@@H](O)[C@H](O)C(C)(C)[C@@]2(O)[C@H](O)C[C@@]23C[C@@](O)(CC[C@@H]12)[C@](C)(O)C3 | Active
4 | C=C1[C@H]2C[C@H](O)C(C)(C)[C@]2(O)CC[C@@]23C[C@@H](CC[C@@H]12)[C@](C)(O)C3 | Active
5 | C=C1[C@@H]2CC[C@]3(O)C[C@@]2(C[C@@H](O)[C@@]2(O)[C@@H]1[C@H](O)[C@H](O)C2(C)C)C[C@@]3(C)O | Active
6 | C=C1[C@@H]2CC[C@]3(O)C[C@@]2(C[C@@H](O)[C@@]2(O)[C@H]1C[C@H](O)C2(C)C)C[C@@]3(C)O | Active
7 | C=C1[C@@H]2CC[C@@H]3C[C@@]2(C[C@@H](O)[C@@]2(O)[C@H]1C[C@@H](O)C2(C)C)C[C@@]3(C)O | Active
8 | C=C1[C@H]2C[C@H](O)C(C)(C)[C@@]2(O)[C@H](O)C[C@@]23C[C@@H](CC[C@@H]12)[C@](C)(O)C3 | Active
9 | CO[C@H]1O[C@]23[C@H](O)C[C@@]45C[C@@](O)(CC[C@H]4[C@H]1[C@@H]2C[C@H](O)C3(C)C)[C@](C)(O)C5 | Active
10 | CC1(C)C2=CC[C@@]34C[C@@H](CC[C@H]3[C@@](C)(O)[C@H]2C[C@@H]1O)[C@](C)(O)C4 | Active
11 | C=C1[C@H]2C[C@H](O)[C@@](C)(CO)[C@]2(O)CC[C@@]23C[C@@H](CC[C@@H]12)[C@](C)(O)C3 | 58.8%
12 | C=C1[C@@H]2CC[C@@H]3C[C@@]2(CC[C@@]2(O)[C@H]1C[C@H](O)C2(C)C)C[C@@]3(C)O | Active
13 | CC1=C2CC[C@]3(O)C[C@@]2(C[C@@H](O)[C@@]2(O)[C@H]1[C@@H](O)[C@H](O)C2(C)C)C[C@@]3(C)O | Active
14 | C=C1[C@H]2C[C@H](O)C(C)(C)[C@@]2(O)[C@H](O)C[C@]23C=C(C)[C@H](CC[C@@H]12)C3 | Active
15 | C=C1[C@H]2C[C@H](O)C(C)(C)[C@@]2(O)[C@H](O)C[C@@]23C[C@@](O)(CC[C@@H]12)[C@](C)(O)C3 | Active
16 | C=C1[C@@H]2CC[C@@H]3C[C@@]2(C[C@@H](O)[C@@]2(O)[C@H]1C[C@H](O)C2(C)C)C[C@]3(O)CO | 53.7%
17 | C=C1[C@@H]2CC[C@@H]3[C@@H](O)[C@@]2(C[C@@H](O)[C@@]2(O)[C@H]1C[C@H](O)C2(C)C)C[C@@]3(C)O | Active
18 | CC1=C2CC[C@]3(O)C[C@@]2(C[C@@H](O)[C@@]2(O)[C@H]1C[C@H](O)C2(C)C)C[C@@]3(C)O | 52.3%
19 | C=C1[C@@H]2CC[C@@H]3C[C@@]2(CC[C@@]2(O)[C@H]1C[C@H](O)C2(C)C)C[C@]3(O)CO | Active
20 | C=C1[C@@H]2CC[C@@H]3C[C@@]2(C[C@@H](O)[C@@]2(O)[C@H]1C[C@H](O)C2(C)C)C[C@@]3(C)O | Active

System: Mus musculus
Test: Analgesic activity in Kunming mouse model of acetic-acid-induced writhing assessed as inhibition of writhing numbers at 0.2 mg/kg measured for 30 mins relative to control
Type: functional, organism-based

Row | Compound | Activity
21 | C=C1[C@@H]2CC[C@@H]3[C@@H](OC(C)=O)[C@@]2(C[C@@H](O)[C@@]2(O)[C@H]1C[C@H](O)C2(C)C)C[C@@]3(C)O | Active
22 | CC(=O)O[C@@H]1[C@H]2CC[C@H]3[C@@](C)(O)[C@@H]4C[C@H](O)C(C)(C)[C@@]4(O)[C@H](O)C[C@@]13C[C@@]2(C)O | Active

System: Mus musculus
Test: Analgesic activity in Kunming mouse model of acetic-acid-induced writhing assessed as inhibition of writhing numbers at 1 mg/kg measured for 30 mins relative to control
Type: functional, organism-based

Row | Compound | Activity
23 | C=C1C2=C(C=C[C@@]34C[C@@H](CC[C@@H]13)[C@](C)(O)C4)C(C)(C)[C@@H](O)C2 | Active
24 | C=C1[C@@H]2CC[C@H]3C(C)=C[C@]2(C[C@@H](O)[C@@]2(O)[C@H]1C[C@H](O)C2(C)C)[C@@H]3OC(C)=O | Active

System: Mus musculus
Test: Analgesic activity in Kunming mouse model of acetic-acid-induced writhing assessed as inhibition of writhing numbers at 0.04 to 0.2 mg/kg measured for 30 mins relative to control
Type: functional, organism-based

Row | Compound | Activity
25 | C=C1[C@@H]2CC[C@@H]3[C@@H](OC(C)=O)[C@@]2(C[C@@H](O)[C@@]2(O)[C@H]1C[C@H](O)C2(C)C)C[C@@]3(C)O | Active
26 | CC(=O)O[C@@H]1[C@H]2CC[C@H]3[C@@](C)(O)[C@@H]4C[C@H](O)C(C)(C)[C@@]4(O)[C@H](O)C[C@@]13C[C@@]2(C)O | Active

System: Mus musculus
Test: Analgesic activity in Kunming mouse model of acetic-acid-induced writhing assessed as inhibition of writhing numbers at 0.04 mg/kg measured for 30 mins relative to control
Type: functional, organism-based

Row | Compound | Activity
27 | CN1CC[C@]23c4c5ccc(O)c4O[C@H]2[C@@H](O)C=C[C@H]3[C@H]1C5 | Active

From ChEMBL document CHEMBL4339245, “Grayanane Diterpenoids from the Leaves of Rhododendron auriculatum and Their Analgesic Activities” (2019)
